Measured values from patent publication US20190136188A1, “4HPR AND ITS USE IN THE CULTURING OF HEMATOPOIETIC STEM CELLS” (UNIVERSITY HEALTH NETWORK, priority 2016, published 2019).

Key:
DEGS1 = target: T1, DEGS1 (Homo sapiens, UniProt O15121); experiment: Lipid mass spectrometry (LC/MS) of sphingolipids, DEGS1 activity; format: cell-based
T1 construct: endogenous in cells; host or cells: lineage-depleted human cord blood (lin- CB) cells
T1 sequence (O15121 1-323): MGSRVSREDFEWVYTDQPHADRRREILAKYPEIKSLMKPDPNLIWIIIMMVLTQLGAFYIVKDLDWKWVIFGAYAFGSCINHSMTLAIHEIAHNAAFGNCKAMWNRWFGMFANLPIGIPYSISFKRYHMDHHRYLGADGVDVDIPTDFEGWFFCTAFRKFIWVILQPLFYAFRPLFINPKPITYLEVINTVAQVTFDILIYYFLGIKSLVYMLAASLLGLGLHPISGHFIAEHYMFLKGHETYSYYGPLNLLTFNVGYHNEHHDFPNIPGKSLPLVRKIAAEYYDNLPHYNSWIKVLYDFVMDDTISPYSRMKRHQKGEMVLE
Excerpt: All experiments following are at this 4HPR concentration unless otherwise indicated. […] (C) LC/MS was used to profile the ceramide (Cer), dihydroceramide (dhCer), sphingosine (sph), dihydrosphingosine (dhSph), S1P and dihydro-S1P (dhS1P) levels in lin− CB cells cultured for 8 days with control or 4HPR (n=2).

[1] = test system: long-term repopulating cell (LTRC) in NSG mice; experiment: Serial (secondary) transplantation limiting dilution analysis, LTRC frequency; format: in vivo
Excerpt: (A) Experimental scheme (B) Representative FACS analysis data of in vitro culture for 16 HSC dose time course (n=3). The number of (C) viable cells, (D) CD15+ myeloid cells, (E) GlyA+ erythroid cells, and (F) CD34+ primitive cells measured for the 16 LTRC dose with HTS flow cytometry analysis at day 8 post-treatment for vehicle control or 4HPR prior to xenotransplantation (n=5 biological replicates, 4 in technical triplicate, marked with different symbols). (G) Human CD45+ engraftment at 16 weeks post transplant in injected femur (n=4, 5 mice/biological experiment). Lineage analysis of control or 4HPR transplanted mice from FIG. 5G for (H) B lymphoid, (I) myeloid, (J) erythroid, and (K) primitive CD34+ at the 16 LTRC dose. (L) CD45+ cells were isolated from 5 biological experiments of the 16 LTRC dose primary mice and transplanted at limiting doses into secondary recipients for 16 weeks. Human CD45+ marking of >0.1% was considered positive for secondary engraftment. Limiting dilutation analysis was performed using ELDA software and the long-term repopulating cell (LTRC) frequency for each biological replicate plotted and the average LTRC frequency calculated.
(A) The number of cells following 8 days of ex vivo culture at the 16 LTRC dose grown as in FIG. 5A for the indicated drug treatments (n=2). […] (2 biological replicates) (E) CD45+ cells were isolated from 2 biological experiments of the 16 LTRC dose primary mice and transplanted at limiting doses into secondary recipients for 16 weeks. Human CD45+ marking of >0.01% was considered positive for secondary engraftment. Limiting dilutation analysis was performed using ELDA software and the long-term repopulating cell (LTRC) frequency for each biological replicate plotted and the average LTRC frequency calculated.
To determine if 4HPR preserves functional HSC in CB liquid culture, we devised an experimental protocol to test the effect of 4HPR treatment in short-term ex vivo expansion culture on repopulation in serial NSG xenotransplantation to functionally read out LT-HSC (FIG. 5A). […]

[2] = test system: HSPC subpopulations including HSC, MPP and GMP; experiment: BrdU incorporation (proliferation rate); format: cell-based, human; settings: 2 uM 4HPR, day 3 post-treatment
sorted HSC, MPP or GMP = experiment: Cell cycle analysis with Ki67 and Hoescht by flow cytometry; format: cell-based, human; settings: 2 uM 4HPR, day 2 or day 3
[3] = lin-CB cells cultured 8 days, 2 uM 4HPR

CC1=C(/C=C/C(C)=C/C=C/C(C)=C/C(=O)Nc2ccc(O)cc2)C(C)(C)CCC1 [4HPR, N-(4hydroxyphenyl)retinamide]
dhCer and dhSph levels (DEGS1; 8 day culture, alone or in combination with UM171 and SR1): increases dhCer and dhSph | levels of the signaling lipid S1P (DEGS1; [3]): not altered | total ceramide compared to control (DEGS1; [3]): decrease total ceramide | total dihydroceramide compared to control (DEGS1; [3]): increase total dihydroceramide | frequency of LT-HSC ([1]; 4HPR added to SR1+UM171 treatment compared to SR1+UM171 treatment alone): doubled | average LTRC frequency ([1]; 4HPR treated cells, through 32 weeks of xenotransplantation): 1e6 CD45+ cells | increase in SRC over control treatment ([1]; through 32 weeks of xenotransplantation, n=5, p=0.02): 3 fold | proliferation rate by BrdU incorporation [2]: decreased proliferation rate | cell cycle transit (Ki67 and Hoescht) (sorted HSC, MPP or GMP): no significant difference between ctrl and 4HPR
